pKd: −log10 of the molar value. Numbered stars: 1 amine (or outer) side, 2 acyl side, 3 side chain; on linkers, the order of the positions; unused ones are H or OH. Bridge positions count the residues as written; N and C are the ends. Square brackets hold non-standard residues; d marks the D form. Peptide text beside a SMILES is read from it. * marks the point of attachment. ξ: configuration not given here. DOTA = O=C(O)CN1CCN(CC(=O)O)CCN(CC(=O)*)CCN(CC(=O)O)CC1; Trp(7-OMe) = COc1cccc2c(C[C@H](N)C(=O)O)c[nH]c12; Trp(7-Me) = Cc1cccc2c(C[C@H](N)C(=O)O)c[nH]c12; 2Nal = N[C@@H](Cc1ccc2ccccc2c1)C(=O)O; Palmitoyl = CCCCCCCCCCCCCCCC(=O)*; tBuAla = CC(C)(C)C[C@H](N)C(=O)O; 3Pal = N[C@@H](Cc1cccnc1)C(=O)O; 4Pal = N[C@@H](Cc1ccncc1)C(=O)O; NMeL = CN[C@@H](CC(C)C)C(=O)O; Chg = N[C@H](C(=O)O)C1CCCCC1; Lauroyl = CCCCCCCCCCCC(=O)*; CH2 = C([*:1])[*:2]; ξP = O=C(O)C1CCCN1

This assay concerns the target T1, human DLL3 (Homo sapiens, UniProt Q9NYJ7).
T1 sequence (Q9NYJ7 27-618): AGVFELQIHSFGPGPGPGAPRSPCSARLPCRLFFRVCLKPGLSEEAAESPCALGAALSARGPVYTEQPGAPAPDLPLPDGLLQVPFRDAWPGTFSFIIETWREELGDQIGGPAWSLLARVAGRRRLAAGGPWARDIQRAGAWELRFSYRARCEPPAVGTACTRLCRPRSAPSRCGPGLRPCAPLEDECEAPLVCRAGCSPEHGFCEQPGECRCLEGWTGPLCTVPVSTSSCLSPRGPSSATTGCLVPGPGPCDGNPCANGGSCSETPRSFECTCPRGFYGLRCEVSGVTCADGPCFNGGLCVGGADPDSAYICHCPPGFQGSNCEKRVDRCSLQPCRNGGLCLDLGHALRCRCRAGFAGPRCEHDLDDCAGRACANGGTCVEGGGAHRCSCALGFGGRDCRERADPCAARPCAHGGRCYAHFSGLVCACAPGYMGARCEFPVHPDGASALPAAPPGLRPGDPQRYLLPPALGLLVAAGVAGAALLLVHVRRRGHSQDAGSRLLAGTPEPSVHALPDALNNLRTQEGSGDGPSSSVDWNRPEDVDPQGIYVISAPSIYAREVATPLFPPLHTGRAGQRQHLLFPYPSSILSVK
As to the kind of experiment: Affinity determination by Surface Plasmon Resonance (SPR). The format is binding. To be noted: 25° C., biotinylated human DLL3 immobilized on streptavidin sensor chip, 1:1 binding model; read-out: SPR KD. The method in brief: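 Biotinylated human DLL3 was captured on a streptavidin chip with a reference surface. Compounds at several concentrations were injected at 100 μL/minute in phosphate buffer (137 mM NaCl, 2.7 mM KCl, 0.05% P20, 2% DMSO). Affinity and kinetics came from 1:1 model fits of the sensorgrams.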

As to `CC(=O)N[C@@H](Cc1c[nH]c2ccccc12)C(=O)N[C@H](C(=O)N[C@@H](CC(C)(C)C)C(=O)N[C@H]1CSSC[C@@H](C(=O)N[C@@H](Cc2c[nH]c3ccccc23)C(=O)N2CCC[C@H]2C(=O)N[C@H](CCCCNC(=O)CN2CCN(CC(=O)O)CCN(CC(=O)O)CCN(CC(=O)O)CC2)C(N)=O)NC(=O)[C@H](CC(=O)O)NC(=O)[C@H](Cc2cnc[nH]2)NC(=O)[C@H](Cc2ccc3ccccc3c2)NC(=O)[C@H](CC(N)=O)NC(=O)[C@H](Cc2cccnc2)NC1=O)[C@@H](C)O` [compound 289, Ac-W-T-(t-Bu-Ala)-C(3)-(3Pya)-N-(2Nal)-H-D-C(3)-W-P-[D-Lys(DOTA)]-NH2] (Ac-WT[tBuAla]C[3Pal]N[2Nal]HDCWP[dK](DOTA)-NH2; disulfide 4-10), the pKd (as a rule, −log10 of the Kd, conventionally taken in molar units) was over 9.00.
The value for `CC(=O)N[C@@H](Cc1c[nH]c2ccccc12)C(=O)N[C@H](C(=O)N[C@H](C(=O)N[C@H]1CSSC[C@@H](C(=O)N[C@@H](Cc2c[nH]c3ccccc23)C(=O)N2CCC[C@H]2C(=O)N[C@H](CCCCNC(=O)CN2CCN(CC(=O)O)CCN(CC(=O)O)CCN(CC(=O)O)CC2)C(N)=O)NC(=O)[C@H](CC(=O)O)NC(=O)[C@H](Cc2cnc[nH]2)NC(=O)[C@H](Cc2ccc3ccccc3c2)NC(=O)[C@H](CC(N)=O)NC(=O)[C@H](Cc2ccncc2)NC1=O)C1CCCCC1)[C@@H](C)O` [compound 290, Ac-W-T-(Chg)-C(3)-(4Pya)-N-(2Nal)-H-D-C(3)-W-P-[D-Lys(DOTA)]-NH2] (Ac-WT[Chg]C[4Pal]N[2Nal]HDCWP[dK](DOTA)-NH2; disulfide 4-10) was over 9.00; that for `CC[C@H](C)[C@H](NC(=O)[C@@H](NC(=O)[C@H](Cc1c[nH]c2ccccc12)NC(C)=O)[C@@H](C)O)C(=O)N[C@H]1CSSC[C@@H](C(=O)N[C@@H](Cc2c[nH]c3ccccc23)C(=O)N2CCC[C@H]2C(=O)N[C@H](CCCCNC(=O)CN2CCN(CC(=O)O)CCN(CC(=O)O)CCN(CC(=O)O)CC2)C(N)=O)NC(=O)[C@H](CC(=O)O)NC(=O)[C@H](Cc2cnc[nH]2)NC(=O)[C@H](Cc2c[nH]c3c(C)cccc23)NC(=O)[C@H](CC(N)=O)NC(=O)[C@H](CC(N)=O)NC1=O` [compound 295, Ac-W-T-I-C(3)-N-N-(7-Me-W)-H-D-C(3)-W-P-[D-Lys(DOTA)]-NH2] (Ac-WTICNN[Trp(7-Me)]HDCWP[dK](DOTA)-NH2; disulfide 4-10) was over 9.00.
As for `CC[C@H](C)[C@H](NC(=O)[C@@H](NC(=O)[C@H](Cc1c[nH]c2ccccc12)NC(C)=O)[C@@H](C)O)C(=O)N[C@H]1CSSC[C@@H](C(=O)N[C@@H](Cc2c[nH]c3ccccc23)C(=O)N2CCC[C@H]2C(=O)N[C@H](CCCCNC(=O)CN2CCN(CC(=O)O)CCN(CC(=O)O)CCN(CC(=O)O)CC2)C(N)=O)NC(=O)[C@H](CC(=O)O)NC(=O)[C@H](Cc2cnc[nH]2)NC(=O)[C@H](Cc2c[nH]c3c(OC)cccc23)NC(=O)[C@H](CC(N)=O)NC(=O)[C@H](CC(N)=O)NC1=O` [compound 296, Ac-W-T-I-C(3)-N-N-(7-MeO-W)-H-D-C(3)-W-P-[D-Lys(DOTA)]-NH2] (Ac-WTICNN[Trp(7-OMe)]HDCWP[dK](DOTA)-NH2; disulfide 4-10), the pKd is over 9.00.
For the compound `CC[C@H](C)[C@H](NC(=O)[C@@H](NC(=O)[C@H](Cc1c[nH]c2ccccc12)NC(C)=O)[C@@H](C)O)C(=O)N[C@H]1CSSC[C@@H](C(=O)N[C@@H](Cc2c[nH]c3c(C)cccc23)C(=O)N2CCC[C@H]2C(=O)N[C@H](CCCCNC(=O)CN2CCN(CC(=O)O)CCN(CC(=O)O)CCN(CC(=O)O)CC2)C(N)=O)NC(=O)[C@H](CC(=O)O)NC(=O)[C@H](Cc2cnc[nH]2)NC(=O)[C@H](Cc2c[nH]c3ccccc23)NC(=O)[C@H](CC(N)=O)NC(=O)[C@H](CC(N)=O)NC1=O` [compound 298, Ac-W-T-I-C(3)-N-N-W-H-D-C(3)-(7-Me-W)-P-[D-Lys(DOTA)]-NH2] (Ac-WTICNNWHDC[Trp(7-Me)]P[dK](DOTA)-NH2; disulfide 4-10), the pKd was over 9.00.
Take `CC[C@H](C)[C@H](NC(=O)[C@@H](NC(=O)[C@H](Cc1c[nH]c2ccccc12)NC(C)=O)[C@@H](C)O)C(=O)N[C@H]1CSSC[C@@H](C(=O)N[C@@H](Cc2c[nH]c3c(OC)cccc23)C(=O)N2CCC[C@H]2C(=O)N[C@H](CCCCNC(=O)CN2CCN(CC(=O)O)CCN(CC(=O)O)CCN(CC(=O)O)CC2)C(N)=O)NC(=O)[C@H](CC(=O)O)NC(=O)[C@H](Cc2cnc[nH]2)NC(=O)[C@H](Cc2c[nH]c3ccccc23)NC(=O)[C@H](CC(N)=O)NC(=O)[C@H](CC(N)=O)NC1=O` [compound 299, Ac-W-T-I-C(3)-N-N-W-H-D-C(3)-(7-MeO-W)-P-[D-Lys(DOTA)]-NH2] (Ac-WTICNNWHDC[Trp(7-OMe)]P[dK](DOTA)-NH2; disulfide 4-10): the pKd is over 9.00.
For `CC[C@H](C)[C@H](NC(=O)[C@@H](NC(=O)[C@H](Cc1c[nH]c2ccccc12)NC(C)=O)[C@@H](C)O)C(=O)N[C@H]1CSCSC[C@@H](C(=O)N[C@@H](Cc2c[nH]c3ccccc23)C(=O)N2CCCC2C(=O)N[C@@H](CCCCNC(=O)CN2CCN(CC(=O)O)CCN(CC(=O)O)CCN(CC(=O)O)CC2)C(N)=O)NC(=O)[C@H](CC(=O)O)NC(=O)[C@H](Cc2cnc[nH]2)NC(=O)[C@H](Cc2ccc3ccccc3c2)NC(=O)[C@H](CC(N)=O)NC(=O)[C@H](CC(N)=O)NC1=O` (stereo partly drawn) [compound 329, Ac-W-T-I-C(1)-N-N-(2Nal)-H-D-C(1)-W-P-[L-Lys(DOTA)]-NH2] (Ac-WTICNN[2Nal]HDCW[ξP]K(DOTA)-NH2; linker 4-10 via CH2), the pKd was over 9.00.
`CC[C@H](C)[C@H](NC(=O)[C@@H](NC(=O)[C@H](Cc1c[nH]c2c(C)cccc12)NC(C)=O)[C@@H](C)O)C(=O)N[C@H]1CSCSC[C@@H](C(=O)N[C@@H](Cc2c[nH]c3ccccc23)C(=O)N2CCCC2C(=O)N[C@H](CCCCNC(=O)CN2CCN(CC(=O)O)CCN(CC(=O)O)CCN(CC(=O)O)CC2)C(N)=O)NC(=O)[C@H](CC(=O)O)NC(=O)[C@H](Cc2cnc[nH]2)NC(=O)[C@H](Cc2ccc3ccccc3c2)NC(=O)[C@H](CC(N)=O)NC(=O)[C@H](CC(N)=O)NC1=O` (stereo partly drawn) [compound 330, Ac-7MeW-T-I-C(1)-N-N-(2Nal)-H-D-C(1)-W-P-[D-Lys(DOTA)]-NH2] (Ac-[Trp(7-Me)]TICNN[2Nal]HDCW[ξP][dK](DOTA)-NH2; linker 4-10 via CH2): the pKd is over 9.00.
As to `CC[C@H](C)[C@H](NC(=O)[C@@H](NC(=O)[C@H](Cc1c[nH]c2c(OC)cccc12)NC(C)=O)[C@@H](C)O)C(=O)N[C@H]1CSSC[C@@H](C(=O)N[C@@H](Cc2c[nH]c3ccccc23)C(=O)N2CCC[C@H]2C(=O)N[C@H](CCCCNC(=O)CN2CCN(CC(=O)O)CCN(CC(=O)O)CCN(CC(=O)O)CC2)C(N)=O)NC(=O)[C@H](CC(=O)O)NC(=O)[C@H](Cc2cnc[nH]2)NC(=O)[C@H](Cc2ccc3ccccc3c2)NC(=O)[C@H](CC(N)=O)NC(=O)[C@H](CC(N)=O)NC1=O` [compound 344, Ac-(7MeO-Trp)-T-I-C(3)-N-N-W-H-D-C(3)-W-P-[D-Lys(DOTA)]-CONH2] (Ac-[Trp(7-OMe)]TICNN[2Nal]HDCWP[dK](DOTA)-NH2; disulfide 4-10), the pKd was over 9.00.
Regarding `CC[C@H](C)[C@H](NC(=O)[C@@H](NC(=O)[C@H](Cc1c[nH]c2ccccc12)NC(C)=O)[C@@H](C)O)C(=O)N[C@H]1CSSC[C@@H](C(=O)N[C@@H](Cc2c[nH]c3ccccc23)C(=O)N(C)[C@@H](CC(C)C)C(=O)N[C@H](CCCCNC(=O)CN2CCN(CC(=O)O)CCN(CC(=O)O)CCN(CC(=O)O)CC2)C(N)=O)NC(=O)[C@H](CC(=O)O)NC(=O)[C@H](Cc2cnc[nH]2)NC(=O)[C@H](Cc2c[nH]c3ccccc23)NC(=O)[C@H](CC(N)=O)NC(=O)[C@H](CC(N)=O)NC1=O` [compound 345, Ac-W-T-I-C(3)-N-N-W-H-D-C(3)-W-NmeL-[D-Lys(DOTA)]-NH2] (Ac-WTICNNWHDCW[NMeL][dK](DOTA)-NH2; disulfide 4-10), the pKd is 8.00 to 9.00.
Turning to `CCCCCCCCCCCC(=O)NCCCC[C@H](NC(=O)[C@@H](NC(=O)[C@H](Cc1c[nH]c2ccccc12)NC(C)=O)[C@@H](C)O)C(=O)N[C@H]1CSSC[C@@H](C(=O)N[C@@H](Cc2c[nH]c3ccccc23)C(=O)N2CCC[C@H]2C(=O)N[C@H](CCCCNC(=O)CN2CCN(CC(=O)O)CCN(CC(=O)O)CCN(CC(=O)O)CC2)C(N)=O)NC(=O)[C@H](CC(=O)O)NC(=O)[C@H](Cc2cnc[nH]2)NC(=O)[C@H](Cc2c[nH]c3ccccc23)NC(=O)[C@H](CC(N)=O)NC(=O)[C@H](CC(N)=O)NC1=O` [compound 346, Ac-W-T-K(C12)-C(3)-N-N-W-H-D-C(3)-W-P-[D-Lys(DOTA)]-NH2] (Ac-WTK(Lauroyl)CNNWHDCWP[dK](DOTA)-NH2; disulfide 4-10), the pKd is 7.00 to 8.00.
For `CCCCCCCCCCCCCCCC(=O)NCCCC[C@H](NC(=O)[C@@H](NC(=O)[C@H](Cc1c[nH]c2ccccc12)NC(C)=O)[C@@H](C)O)C(=O)N[C@H]1CSSC[C@@H](C(=O)N[C@@H](Cc2c[nH]c3ccccc23)C(=O)N2CCC[C@H]2C(=O)N[C@H](CCCCNC(=O)CN2CCN(CC(=O)O)CCN(CC(=O)O)CCN(CC(=O)O)CC2)C(N)=O)NC(=O)[C@H](CC(=O)O)NC(=O)[C@H](Cc2cnc[nH]2)NC(=O)[C@H](Cc2c[nH]c3ccccc23)NC(=O)[C@H](CC(N)=O)NC(=O)[C@H](CC(N)=O)NC1=O` [compound 348, Ac-W-T-K(C16)-C(3)-N-N-W-H-D-C(3)-W-P-[D-Lys(DOTA)]-NH2] (Ac-WTK(Palmitoyl)CNNWHDCWP[dK](DOTA)-NH2; disulfide 4-10), the negative logarithm of the Kd (pKd) is 6.52 to 7.00.

The values above are taken from US20250011368A1, “DLL3 TARGETING PEPTIDES AND CONSTRUCTS THEREOF” (MARIANA ONCOLOGY INC., priority 2023, published 2025).
